# Experimental data reported in the Deep4Chem optical property database.
# Experiment: photoluminescence quantum yield (fraction); solvent given as SMILES
smiles,measurement,setting,value
CCCCOC(=O)c1cc(Cl)c2c3c(Cl)cc4c5c(cc(Cl)c(c6c(Cl)cc(C(=O)OCCCC)c1c26)c53)C(=O)N(c1c(C(C)C)cccc1C(C)C)C4=O,photoluminescence quantum yield,in Cc1ccccc1,0.89
CC1(C)c2ccccc2N(c2ccc3c(c2)Oc2ccccc2P3(=O)c2ccccc2)c2ccccc21 (configuration not stated),photoluminescence quantum yield,in Cc1ccccc1,0.37
same,photoluminescence quantum yield,in O=P(c1ccccc1)(c1ccccc1)c1ccccc1Oc1ccccc1P(=O)(c1ccccc1)c1ccccc1,0.62
CCN(CC)c1ccc2c(c1)oc(=O)c1cc3cnn(-c4ccccc4)c3nc12,photoluminescence quantum yield,in C1CCCCC1,0.717
same,photoluminescence quantum yield,in CCOC(C)=O,0.233
same,photoluminescence quantum yield,in CN(C)C=O,0.023
same,photoluminescence quantum yield,in CO,0.002
same,photoluminescence quantum yield,in ClCCl,0.325
c1ccc(-c2cc3cc4cccc5c(-c6ccccc6)cc6cc7cccc2c7c3c6c45)cc1,photoluminescence quantum yield,in ClCCl,0.33
COc1ccc(C2=C/C(=C\c3ccccc3)C(=O)O2)cc1OC,photoluminescence quantum yield,in C1COCCO1,0.004
F[B-]1(F)OC(c2cc3c4c(c2)CCCN4CCC3)=Cc2cccc[n+]21,photoluminescence quantum yield,in ClC(Cl)Cl,0.57
CC1(C)CC(NCc2ccc3ccc4cccc5ccc2c3c45)CC(C)(C)N1,photoluminescence quantum yield,in C1CCCCC1,0.55
same,photoluminescence quantum yield,in CC#N,0.04
same,photoluminescence quantum yield,in CO,0.14
same,photoluminescence quantum yield,in ClC(Cl)Cl,0.08
COc1cc2c(cc1-c1ccc([N+](=O)[O-])cc1)Cc1c3c(c4c(c1-2)-c1cc(OC)c(-c2ccc([N+](=O)[O-])cc2)cc1C4)C(=O)N(CCC(C)C)C3=O,photoluminescence quantum yield,in C1CCOC1,0.11
COc1cc(OC)c2cc(C#N)c(=N)oc2c1,photoluminescence quantum yield,in ClCCl,0.047
CC1=C(c2ccccc2)Oc2cc3nc4ccccc4nc3c3cccc1c23,photoluminescence quantum yield,in ClCCl,0.45
N#Cc1c(N2CCCCC2)cc(-c2cccs2)c2c1CCc1ccccc1-2,photoluminescence quantum yield,in C1CCOC1,0.21
Oc1ccc(-c2nc(-c3ccccc3)c(-c3ccccc3)[nH]2)cc1,photoluminescence quantum yield,in CO,0.18
CNCCCN1c2ccccc2CCc2ccccc21,photoluminescence quantum yield,in CC#N,0.009
same,photoluminescence quantum yield,in CO,0.01
same,photoluminescence quantum yield,in O,0.012
COc1ccc(N(c2ccc(C=C(c3ccccc3)c3ccccc3)cc2)c2ccc(C=C(c3ccccc3)c3ccccc3)cc2)cc1,photoluminescence quantum yield,in Cc1ccccc1,0.06
CC[C@H](C)COc1ccc(C2=C3C(C)=C(c4ccc5ccc6cccc7ccc4c5c67)C(C)=[N+]3[B-](F)(F)n3c(C)c(-c4ccc5ccc6cccc7ccc4c5c67)c(C)c32)cc1,photoluminescence quantum yield,in ClCCl,0.5
CCn1c2ccccc2c2cc(C#Cc3cc(C#Cc4ccc5c(c4)c4ccccc4n5CC)nc(N4CCCCC4)n3)ccc21,photoluminescence quantum yield,in C1CCOC1,0.21
same,photoluminescence quantum yield,in CCOC(C)=O,0.17
same,photoluminescence quantum yield,in CN(C)C=O,0.15
same,photoluminescence quantum yield,in Cc1ccccc1,0.21
same,photoluminescence quantum yield,in ClCCl,0.2
COc1ccc(C#CC2=C3CCc4ccccc4C3=[O+][B-](F)(F)O2)cc1,photoluminescence quantum yield,in ClCCl,0.145
Fc1ccccc1-c1nc2sc3ccccc3c2s1,photoluminescence quantum yield,in CS(C)=O,0.64
CCCCCCC(CCCCCC)N1C(=O)c2cccc3c(-c4ccccc4)ccc(c23)C1=O,photoluminescence quantum yield,in CCCCCC,0.076
same,photoluminescence quantum yield,in CCCCCCCCCCCCCC,0.094
same,photoluminescence quantum yield,in CCCCCCCCCCCO,0.76
same,photoluminescence quantum yield,in CCCCO,0.95
same,photoluminescence quantum yield,in CN(C)C=O,0.74
same,photoluminescence quantum yield,in Cc1ccccc1,0.5
same,photoluminescence quantum yield,in ClC(Cl)Cl,0.78
Oc1ccc2ccccc2c1-c1nc(-c2ccccc2)c2ccccn12,photoluminescence quantum yield,in ClCCl,0.136
CSC1=C2C=C(c3cc4n(c3)[B-](F)(F)[N+]3=CC=CC3=C4c3c(C)cc(C)cc3C)C(C)=[N+]2[B-](F)(F)n2c(C)ccc21,photoluminescence quantum yield,in C1CCCCC1,0.83
same,photoluminescence quantum yield,in CC#N,0.01
same,photoluminescence quantum yield,in CC(C)=O,0.01
same,photoluminescence quantum yield,in CCOC(C)=O,0.19
same,photoluminescence quantum yield,in Cc1ccccc1,0.57
CC1=c2ccccc2=[N+]2C1=Cc1c3ccccc3c(-c3[nH]c4ccccc4c3C)n1[B-]2(F)F,photoluminescence quantum yield,in ClCCl,0.08
O=C(/C=C(\O)c1ccc(N2c3ccccc3Oc3ccccc32)cc1)c1ccc(N2c3ccccc3Oc3ccccc32)cc1,photoluminescence quantum yield,in c1ccc2c(c1)c1ccccc1n2-c1ccc(-c2ccc(-n3c4ccccc4c4ccccc43)cc2)cc1,0.68
c1ccc(N(c2ccccc2)c2ccc(N(c3ccccc3)c3ccc4ccc5c(N(c6ccccc6)c6ccc(N(c7ccccc7)c7ccccc7)cc6)ccc6ccc3c4c65)cc2)cc1,photoluminescence quantum yield,in ClCCl,0.13
O=c1c2ccccc2oc2cc(N3c4ccccc4C4(c5ccccc5Oc5ccccc54)c4ccccc43)ccc12,photoluminescence quantum yield,in Cc1ccccc1,0.77
CCCC1=Cc2nc1ccc1[nH]c(cc1CCC)c1nc(c(OC(C)=O)cc3[nH]c2cc3CCC)C(CCC)=C1,photoluminescence quantum yield,in Cc1ccccc1,0.28
COc1ccc(-c2cc3c(s2)-c2sc(-c4ccc(OC)cc4)cc2P(c2ccccc2)(c2ccccc2)=[O+][B-]3(c2c(C)cc(C)cc2C)c2c(C)cc(C)cc2C)cc1,photoluminescence quantum yield,in C1CCOC1,0.52
CC(C)(C)c1ccc(-c2c3c(c(-c4ccccc4)c4cc5ccccc5cc24)Cc2c(c(-c4ccccc4)c4cc5ccccc5cc4c2-c2ccc(C(C)(C)C)cc2)C3)cc1,photoluminescence quantum yield,in ClCCl,0.16
